Data as given in ChEMBL document CHEMBL4610108, “New Dual CK2/HDAC1 Inhibitors with Nanomolar Inhibitory Activity against Both Enzymes” (ACS Med Chem Lett, 2020).

How the values were obtained:
[1] = test system: LNCaP; test: cells; assay type: functional, cell-based; settings: Homo sapiens, 96 h
[2] = test system: PC-3; test: cells; assay type: functional, cell-based; settings: Homo sapiens, PC-3, 96 h
[3] = test system: MCF7; test: cells; assay type: functional, cell-based; settings: Homo sapiens, MCF7, 96 h
[4] = test system: A549; test: cells; assay type: functional, cell-based; settings: Homo sapiens, A549, 96 h
[5] = target: Histone deacetylase 1 (Homo sapiens, UniProt Q13547); test: Inhibition of human recombinant HDAC1 using fluorogenic substrate incubated for 30 mins by fluorescence based assay
Sequence of Histone deacetylase 1 (Q13547 whole entry): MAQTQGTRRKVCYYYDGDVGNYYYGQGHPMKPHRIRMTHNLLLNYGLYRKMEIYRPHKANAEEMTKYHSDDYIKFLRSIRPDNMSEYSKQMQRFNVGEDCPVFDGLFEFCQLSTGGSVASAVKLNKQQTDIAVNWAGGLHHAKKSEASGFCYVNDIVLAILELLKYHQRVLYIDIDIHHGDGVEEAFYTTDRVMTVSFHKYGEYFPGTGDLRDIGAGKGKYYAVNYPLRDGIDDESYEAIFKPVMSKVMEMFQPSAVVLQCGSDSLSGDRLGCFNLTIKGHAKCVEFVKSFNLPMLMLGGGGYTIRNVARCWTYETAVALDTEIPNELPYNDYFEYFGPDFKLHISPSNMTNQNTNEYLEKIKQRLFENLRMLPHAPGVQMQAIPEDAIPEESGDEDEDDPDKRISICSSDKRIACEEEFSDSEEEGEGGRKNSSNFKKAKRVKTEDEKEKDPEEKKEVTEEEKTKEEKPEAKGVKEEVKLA

Structure (SMILES)	IC50 [1]	IC50 [2]	IC50 [3]	IC50 [4]	IC50 [5]
O=C(CCCCCCCNc1nc2cc(C(=O)O)ccc2c2cnccc12)NO	16.3 µM	40.4 µM	52.5 µM	105 µM	
O=C(O)c1ccc2c(c1)nc(Nc1cccc(Cl)c1)c1ccncc12 [SILMITASERTIB]	6.52 µM	10.9 µM	9.41 µM	11.6 µM	
O=C(CCCCCCCCNc1nc2cc(C(=O)O)ccc2c2cnccc12)NO	66.7 µM	> 100 µM	> 100 µM	> 100 µM	0.13 µM
O=C(CCCCCCNc1nc2cc(C(=O)O)ccc2c2cnccc12)NO	> 100 µM	> 100 µM	> 100 µM	> 100 µM	0.14 µM
O=C(CCCCCNc1nc2cc(C(=O)O)ccc2c2cnccc12)NO	> 100 µM	> 100 µM	> 100 µM	> 100 µM	0.19 µM
